Reference: patent US7166694B2, “Vaccine against cancerous diseases which is based on mimotopes of antigens expressed on tumor cells” (priority 2000, dated 2007)
Marks after values point to notes of the source that are not given here.

Experiments:
SKBR3 membranes = experiment: ELISA of control antibody binding to SKBR3 membranes; settings: control antibody against CD20
Experimental: (§1) The wells of a 96-well ELISA plate (Nunc) were coated with membrane fractions of the Her-2/neu overexpressing cell line SKBR3 and as a control for non-specific antibody bonds with membrane fractions of the Her-2/neu negative cell line HTB 132 in PBS overnight.
(§2) The next day, non-specific binding sites were blocked by 3 percent BSA in PBS. Herceptin as well as herceptin after preincubation with relevant and irrelevant phage mimotopes or by mimotopes on KLH as well as on KLH alone were applied to the coated, blocked ELISA plate in a repeated test. […] HRP enters into a color reaction with the substrate. The result of this color reaction can be quantified by photometer. The absorption coefficient of 450/630 nm (OD) is determined.

Her-2/neu = experiment: ELISA inhibition of the binding of herceptin and HER-2/neu (SKBR3 membranes) by mimotopes; settings: in comparison to uninhibited herceptin control in ELISA, herceptin preincubated overnight
Experimental: For the ELISA inhibition assay one tries to prevent this bond by preincubation with mimotopes on phages or KLH as carrier.
as §1, §2

Row | Substance | signal on SKBR3 membranes (SKBR3 membranes) | Inhibition of herceptin binding with phage mimotopes (Her-2/neu)
1 | Rituximab: humanized monoclonal antibody directed against the phosphoprotein surface antigen on lymphocytes, CD20; control antibody | could not produce any signal | 
2 | phage mimotope SEQ ID NO: 9: phage mimotope CHPTLLWPDFC (homo sapiens) |  | 30.2* Percent
